Source: a melting point compilation (Tetko et al.; mined from patent text by program, amines drawn as free bases though some values may be those of a salt)

| melting point [°C] | SMILES |
| --- | --- |
| 127 to 128 | O=C(CS(=O)(=O)c1ccccc1)c1ccc(F)nc1 |
| 140 to 142 | CN1c2ccccc2C(c2ccccc2F)=Nc2cccnc21 |
| 139 to 141 | COc1cc(/C=C/C(=O)CC(=O)c2ccc(I)cc2)ccc1O |
| 218 to 220 | CC(C)NC(=O)c1cccc(-c2ccnc3c(C(=O)c4cccs4)cnn23)c1 |
| 183 to 185 | Cc1noc(-c2ccc(=O)n3c2-c2sc(-c4ccccc4)cc2SCC3)n1 |
| 222 to 224 | O=C(O)c1ccn(-c2ccc(Cl)cc2)c1 |
| 147 to 148 | O=C(Nc1ccccc1I)c1ccccc1 |
| 207 to 209 | Cc1cc(C)c(C)c(COc2cccc(-c3c(-c4ccccc4)coc3C(=O)NNC(=O)c3ccc(O)c(C#N)c3)c2)c1C |
| 153 | Cc1ccc(C=C2c3ncc(C)cc3CCC2(C)C)cc1 |
| 213 to 216 | CNC1CCCN(C(=O)c2ccc(NC(=O)c3ccccc3C)s2)c2ccc(Cl)cc21 (configuration not stated) |
| 70 to 85 | Nc1cccc(-c2ccc(CC3CCCCN3Cc3ccccc3)cc2)n1 (configuration not stated) |
| 126 to 127 | COC(=O)COc1cc2c(c(Cl)c1Cl)C(=O)C(CC#C[Si](C)(C)C)(c1ccccc1)C2 (configuration not stated) |
| 135 to 137 | C=C(C)Cn1c(=O)n(C)c(=O)c2c(SCCO)n(Cc3cccc4ccccc34)nc21 |
| 190 to 191 | CCc1nc(/C=C/c2cn(-c3ccccc3)nc2OCc2ccc(OCc3nc(-c4cccc(C(=O)O)c4)oc3C)c(OC)c2)cs1 |
| 149 to 150 | CCOC(=O)c1cccc(Nc2nccc(-c3ccnc(Cl)c3)n2)c1 |
| 175 to 177 | Cc1cc(-n2ccc(OCc3ccccc3)cc2=O)sc1C(=O)NCc1ccc(F)cc1 |
| 135 to 136 | CCOC(=O)c1[nH]c(-n2ccc(OCc3ccccc3)cc2=O)nc1C |
| 157 to 158 | O=C(NCCO)c1cccc(-c2ccc3c(c2)C(Oc2cccc(C(F)(F)F)c2)CC3)c1 (configuration not stated) |
| 199 to 200 | c1ccc(-c2nnc(NCC3CC3)cc2-c2ccncc2)cc1 |
| 209 to 210 | O=S(=O)(C1=Cc2ccccc2C1)c1ccc(O)cc1 |
| 261 to 263 | O=C(O)c1ccc2nc3c(c(=O)n2c1)CCCC3=Cc1ccccc1 |
| 207 to 209 | CCCNC(=O)CN1C(=O)C2(COc3cc4c(cc32)CCO4)c2ccccc21 (configuration not stated) |
| 235 | COc1cccc(C2(CC(=O)O)C(=O)Nc3ccc(Cl)cc32)c1OC (configuration not stated) |
| 83 to 84 | CNc1nn(-c2ccccc2)cc1C=O |
| 168 to 170 | Cc1cn(Nc2ccncc2)c2ccc(OCc3ccccc3)cc12 |
| 146 to 149 | COCCc1nc2c(N)nc3ccccc3c2n1CCCCCCCCNS(=O)(=O)c1ccccc1 |
| 194 to 195 | O=C(O)c1cccc2cc(Oc3cc(Cl)ncn3)ccc12 |
| 82.5 to 83 | CCCOC(=O)C1=NN(c2ccccc2)C(C(=O)OCCC)=NN1c1ccccc1 |

Continued, molecule first:

| SMILES | melting point [°C] |
| --- | --- |
| CCCn1nc2c(N)nc3ccccc3c2c1CC | 219 to 220 |
| O=[N+]([O-])c1cc(Br)ccc1-c1ccc(Br)cc1[N+](=O)[O-] | 143 to 146 |
| COc1cc(-c2nc(-c3ccc(N(C)C)cc3)c(C)[nH]2)cc(OC)c1OP(=O)(O)O | 196 to 198 |
| CC(C)(C)OC(=O)C1CCN(Sc2ccncc2)CC1 | 71 to 72 |
| COc1ccc(N)c(C(=O)Cc2nnnn2C)c1 | 170 to 172 |
| CC(C)Cn1c(CCCCNC(=O)N2CCOCC2)nc2c(N)nc3ccccc3c21 | 97 to 100 |
| CC(C)(C)CC(C)(C)NC(=O)c1cc(C(C)(C)C)c(OC(=O)c2cc(C(C)(C)C)c(O)c(C(C)(C)C)c2)c(C(C)(C)C)c1 | 213 to 215 |
| CNc1nc(-c2cccc(NC(=O)c3cccnc3)c2)c2cc(OC)c(OC)cc2n1 | 251 to 253 |
| COc1ccc(C)cc1C(CCO)c1cc(C)ccc1OC | 117 |
| NCc1ccsc1CC(=O)O | 194 to 195 |
| CCN1c2ncccc2C(N(C)C)=Nc2c(C)cc(C)nc21 | 150 to 152 |
| CS(=O)(=O)c1c(Cl)ccc(C(=O)O)c1Cl | 158 |
| CCN1c2ccc(C#N)cc2N(CCCCS(=O)(=O)O)C1C (configuration not stated) | > 260 |
| Cn1cc2c(n1)Nc1ccc(Cl)cc1NC2=S | > 260 |
| Cc1c[nH]c(Cc2ccccc2[N+](=O)[O-])n1 | 125 to 128 |
| CCOC(=O)c1ccc(C(=O)CC(O)(c2cc(Cl)cc(Cl)c2)C(F)(F)F)cc1C (configuration not stated) | 72 to 74 |
| Cc1ccc(-c2ccc(OC3SCC(O)C(O)C3O)cn2)cc1 (configuration not stated) | 191 |
| CC(=O)NCc1ccc(CN2CCN(c3ccc(F)cc3)CC2)cc1Cl | 141 to 142 |
| C#CCOC(=O)c1ncn2c1[C@@H]1CCCN1C(=O)c1c(Cl)cccc1-2 | 213 to 214 |
| O=C(Cc1ccncc1)Nc1cccc(-c2ccnc3c(C(=O)c4cccs4)cnn23)c1 | 130 to 131 |
| COc1ccc(CCNC(=O)C2CCCCC2)cc1OC | 110 to 111 |
| CCOC(=O)Nc1cccc(C(=O)CBr)c1 | 108 to 110 |

| SMILES | melting point [°C] |
| --- | --- |
| Cc1ncc2cc(-c3cc(C(F)(F)F)cc(C(F)(F)F)c3)ccc2n1 | 208 to 210 |
| O=C(c1ccc(F)cc1)C1CCN(CC2CSc3ccc(F)cc3C2)CC1 (configuration not stated) | 98 to 102 |
| CCC(=O)Oc1ccc2c(c1)CCC1C2CCC2(C)C(=O)CCC12 (configuration not stated) | 134 to 136 |
| CN(C)Cc1cc(C(=O)C2CCCCC2)cc(C(C)(C)C)c1O | 149 to 150 |
| C[C@@H]1Cc2ccsc2[C@H](C)N1CCNC(=O)c1ccc(C(F)(F)F)cc1 (relative stereo) | 88 to 91 |
| Cc1cc(Oc2nn(C)c(C(F)(F)F)c2Cl)ccc1[N+](=O)[O-] | 72 to 73.5 |
| CN1Cc2c(C(=O)OC(C)(C)C)ncn2-c2cccc(Br)c2C1=O | 207 to 208 |
| NC(=O)c1cc([N+](=O)[O-])cc([N+](=O)[O-])c1Cl | 181 to 183 |
| CC(C)(C)c1cc(-c2n[nH]c3ncccc23)cc(C(C)(C)C)c1O | 216 to 217 |
| CC(C)(C)C1CCC(C(=O)Nc2ccncc2)CC1 (configuration not stated) | 150 to 151 |
| CCn1nc(C)cc1C(=O)OC | 130 to 133 |
| CC(C)(C)OC(=O)N1CC2CN(C(N)=S)CC2C1 (configuration not stated) | 188 to 190 |
| O=C(O)COCOc1cc(Cl)cc(Cl)c1 | 79 to 82 |
| CCNC(=O)c1ccc(-n2nnc(C(=O)NC3CC3)c2CSC)cc1 | 192 |
| COc1ccc(C(F)(F)F)cc1Nc1cccn2nc(Nc3cccc(N4CCN(C)CC4)c3)nc12 | 198 to 200 |
| Cc1c(C)c2c(c(C)c1N)C(c1ccc(C(C)C)cc1)CO2 (configuration not stated) | 171 to 173 |
| CCCCCCCOC(=O)Oc1ccc(-c2ccc(C#N)cc2)cc1 | 50.2 to 50.5 |
| Cc1ccc2c(-c3cc(C(C)(C)C)c(O)c(C(C)(C)C)c3)n[nH]c2n1 | 239 to 240 |
| CCOC(=O)c1c(C(=O)OCC)c(-c2ccc(OC(C)C)c(OC(C)C)c2)c2cc3c(cc2c1O)OCO3 | 123 to 124 |
| CC1(C)N(CC(N)=O)C(=O)CN1C(=O)CN1CCCC1=O | 225 to 227 |
| Cc1nc(C(=O)COc2ccc(CC3SC(=O)NC3=O)cc2)c(C)o1 (configuration not stated) | 161 to 162 |
| CCCCC(O)c1ccc2cc(O)ccc2c1 (configuration not stated) | 109 to 111 |
